Literature values in patent publication US20200396998A1, “HERBICIDAL COMBINATIONS” (UPL LTD, priority 2017, published 2020).

Tested on: broadleaf weed
Settings: saflufenacil alone; early season broadleaf weed control

Q: Which “Weed control efficacy over time, in words” value does the source give for CC(C)N(C)S(=O)(=O)NC(=O)c1cc(-n2c(=O)cc(C(F)(F)F)n(C)c2=O)c(F)cc1Cl [Saflufenacil, N′{2-chloro-4-fluoro-5-[1,2,3,6-tetrahydro-3-methyl-2,6-dioxo-4-(trifluoromethyl)pyrimidin-1-yl]benzoyl}-N-isopropyl-N-methylsulfamide] here?
A: reduced beyond 30 days after treatment
